These results are taken from ChEMBL document CHEMBL1147459, “Thienopyridine and benzofuran derivatives as potent anti-tumor agents possessing different structure-activity relationships” (Bioorg Med Chem Lett, 2004).

Structures are written as SMILES. Values after ≈ are worked out from the molar mass of the structure shown.

The subject of the assay is WI-38 VA13. Description: Effective concentration required to cause cytotoxicity to tumorigenic cell line WI-38 VA-13 subline 2RA. Format: functional, cell-based. Conditions: Homo sapiens.
As to `CNc1c(C(=O)c2ccccc2)sc2nc(-c3cccs3)ccc12`, the midpoint of the response, the EC50, lay at 0.42 µg/mL (≈ 1.2 µM). For `COc1ccc(OC)c(C(=O)c2sc3nc(-c4cccs4)ccc3c2N)c1`, the EC50 was 0.079 µg/mL (≈ 0.199 µM).

For `COc1ccccc1C(=O)c1sc2nc(-c3cccs3)ccc2c1N`, the midpoint of the response, the EC50, lay at 0.059 µg/mL (≈ 0.161 µM). Then `CCOC(=O)c1sc2nc(-c3cccs3)ccc2c1N`, with > 4 µg/mL; and `Nc1c(C(=O)c2ccc(Br)cc2)sc2nc(-c3cccs3)ccc12`, with 2.8 µg/mL (≈ 6.74 µM); and `Nc1c(C(=O)c2ccc(F)cc2)sc2nc(-c3cccs3)ccc12`, with 1.8 µg/mL (≈ 5.08 µM).

As to `Nc1c(C(=O)c2ccc(F)cc2F)sc2nc(-c3cccs3)ccc12`, a half-maximal response (EC50) required 2.3 µg/mL (≈ 6.18 µM). In turn, `COc1cccc(C(=O)c2sc3nc(-c4cccs4)ccc3c2N)c1` had an EC50 of 0.03 µg/mL (≈ 0.0819 µM). Compound `Nc1c(C(=O)c2cccc([N+](=O)[O-])c2)sc2nc(-c3cccs3)ccc12` registered an EC50 of 0.15 µg/mL (≈ 0.393 µM).

With `CCOC(=O)c1oc2cc(-c3ccccc3)cc(OC)c2c1C`, the EC50 is > 4 µg/mL. In the case of `CN(C)c1c(C(=O)c2ccccc2)sc2nc(-c3cccs3)ccc12` it was > 4 µg/mL; in that of `CC(=O)c1sc2nc(-c3cccs3)ccc2c1N`, 2.7 µg/mL (≈ 9.84 µM).

In turn, `CC(C)(C)C(=O)c1sc2nc(-c3cccs3)ccc2c1N` yielded an EC50 of 0.57 µg/mL (≈ 1.8 µM). Compound `Nc1c(C(=O)c2ccccc2)sc2nc(-c3cccs3)ccc12` yielded an EC50 of 0.09 µg/mL (≈ 0.268 µM). On to `Nc1c(C(=O)c2cccc(Br)c2)sc2nc(-c3cccs3)ccc12`, for which it took 0.5 µg/mL (≈ 1.2 µM) to reach a half-maximal effect (EC50).

Compound `COc1ccc(C(=O)c2sc3nc(-c4cccs4)ccc3c2N)c(OC)c1` returned an EC50 of 0.52 µg/mL (≈ 1.31 µM).

`CCC(=O)c1sc2nc(-c3cccs3)ccc2c1N` had an EC50 of 0.89 µg/mL (≈ 3.09 µM).

For the compound `Nc1c(C(=O)c2ccc(F)c(F)c2)sc2nc(-c3cccs3)ccc12`, the EC50 was > 4 µg/mL. With `COc1ccc(C(=O)c2sc3nc(-c4cccs4)ccc3c2N)cc1`, the EC50 was 0.77 µg/mL (≈ 2.1 µM).

As for `Nc1c(C(=O)c2cccc(F)c2)sc2nc(-c3cccs3)ccc12`, the midpoint of the response, the EC50, lay at 0.025 µg/mL (≈ 0.0705 µM).

The term EC50 denotes the midpoint of the concentration-response curve.
